Results: PubChem BioAssay AID330 (DTP/NCI, 2004)
Several values for one entry are separate records, joined by “and”; a condition that tells them apart may be missing. Equal values may be shown once. Inconclusive results and toxic doses are left out. Peptide text beside a SMILES is read from it.

Tested on: P388 leukemia ip, CD2F1 mice, survival T/C
Assay: NCI In Vivo Anticancer Drug Screen. Data for tumor model P388 Leukemia (intraperitoneal) in CD2F1 (CDF1) mice
Conditions: endpoint: median survival time, higher = longer survival
Summary of the method: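 Mice carrying the transplanted tumor received test compound or vehicle. Survival was recorded in each group, and the value is the treated-group measurement divided by that of the vehicle-treated control group.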

[1] = dose: 50.0 mg/kg/injection, schedule: Q01DX005 (ip), vehicle: saline with Tween-80
[2] = dose: 100.0 mg/kg/injection, schedule: Q01DX005 (ip), vehicle: saline with Tween-80
[3] = dose: 200.0 mg/kg/injection, schedule: Q01DX005 (ip), vehicle: saline with Tween-80
[4] = dose: 50.0 mg/kg/injection, schedule: Q01DX005 (ip), vehicle: Klucel (hydroxypropylcellulose) (HPC)
[5] = dose: 100.0 mg/kg/injection, schedule: Q01DX005 (ip), vehicle: Klucel (hydroxypropylcellulose) (HPC)
[6] = dose: 200.0 mg/kg/injection, schedule: Q01DX005 (ip), vehicle: Klucel (hydroxypropylcellulose) (HPC)
[7] = dose: 50.0 mg/kg/injection, schedule: Q01DX009 (ip), vehicle: saline
[8] = dose: 100.0 mg/kg/injection, schedule: Q01DX009 (ip), vehicle: saline
[9] = dose: 200.0 mg/kg/injection, schedule: Q01DX009 (ip), vehicle: saline
[10] = dose: 60.0 mg/kg/injection, schedule: Q01DX005 (ip), vehicle: Klucel (hydroxypropylcellulose) (HPC)
[11] = dose: 120.0 mg/kg/injection, schedule: Q01DX005 (ip), vehicle: Klucel (hydroxypropylcellulose) (HPC)
[12] = dose: 25.0 mg/kg/injection, schedule: Q01DX009 (ip), vehicle: saline with Tween-80
[13] = dose: 50.0 mg/kg/injection, schedule: Q01DX009 (ip), vehicle: saline with Tween-80
[14] = dose: 100.0 mg/kg/injection, schedule: Q01DX009 (ip), vehicle: saline with Tween-80
[15] = dose: 200.0 mg/kg/injection, schedule: Q01DX009 (ip), vehicle: saline with Tween-80

COc1cccc2c1C(=O)c1c(O)c3c(c(O)c1C2=O)C[C@@](O)(C(=O)CO)C[C@@H]3OC1CC(NCc2ccccc2)C(O)C(C)O1 (some centres undefined)
T/C (dose: 0.39 mg/kg/injection, schedule: Q01DX009 (ip), vehicle: water): 150 % of control
T/C (dose: 0.78 mg/kg/injection, schedule: Q01DX009 (ip), vehicle: water): 151 % of control
T/C (dose: 1.56 mg/kg/injection, schedule: Q01DX009 (ip), vehicle: water): 153 % of control and 158 % of control
T/C (dose: 3.13 mg/kg/injection, schedule: Q01DX009 (ip), vehicle: water): 175 % of control and 194 % of control
T/C (dose: 3.89 mg/kg/injection, schedule: Q04DX003 (ip), vehicle: water): 163 % of control
T/C (dose: 6.25 mg/kg/injection, schedule: Q01DX009 (ip), vehicle: water): 107 % of control and 224 % of control
T/C (dose: 6.48 mg/kg/injection, schedule: Q04DX003 (ip), vehicle: water): 175 % of control
T/C (dose: 10.8 mg/kg/injection, schedule: Q04DX003 (ip), vehicle: water): 201 % of control
T/C (dose: 18.0 mg/kg/injection, schedule: Q04DX003 (ip), vehicle: water): 105 % of control
T/C (dose: 30.0 mg/kg/injection, schedule: Q04DX003 (ip), vehicle: water): 94 % of control

CC(C)=CCCC(C)C1CCC2(CO2)C2CC=C(C)C2C1O (centres undefined)
T/C (dose: 20.0 mg/kg/injection, schedule: Q01DX009 (ip), vehicle: Klucel (hydroxypropylcellulose) (HPC)): 102 % of control
T/C (dose: 40.0 mg/kg/injection, schedule: Q01DX009 (ip), vehicle: Klucel (hydroxypropylcellulose) (HPC)): 96 % of control
T/C (dose: 80.0 mg/kg/injection, schedule: Q01DX009 (ip), vehicle: Klucel (hydroxypropylcellulose) (HPC)): 102 % of control
T/C (dose: 160.0 mg/kg/injection, schedule: Q01DX009 (ip), vehicle: Klucel (hydroxypropylcellulose) (HPC)): 99 % of control

Cn1c(=O)ccc2c1nc1ccccc1[n+]2[O-]
T/C (dose: 60.0 mg/kg/injection, schedule: Q01DX005 (ip), vehicle: saline with Tween-80): 101 % of control
T/C (dose: 120.0 mg/kg/injection, schedule: Q01DX005 (ip), vehicle: saline with Tween-80): 102 % of control

COC(=O)C1=C(C(=O)OC)[C@@H]2CCC[C@H]1[C@H]1[C@@H]2N=NN1c1ccccc1
T/C [1]: 100 % of control
T/C [2]: 98 % of control
T/C [3]: 100 % of control

CCCCN(CCCC)CNC(=O)c1ccccc1
T/C [1]: 97 % of control
T/C [2]: 100 % of control

COc1ccccc1-n1c(=O)c(N=Nc2ccccc2)c(O)n(-c2ccccc2Cl)c1=S
T/C (dose: 100.0 mg/kg/injection, schedule: Q01DX001 (ip), vehicle: Klucel (hydroxypropylcellulose) (HPC)): 97 % of control
T/C (dose: 200.0 mg/kg/injection, schedule: Q01DX001 (ip), vehicle: Klucel (hydroxypropylcellulose) (HPC)): 95 % of control
T/C (dose: 400.0 mg/kg/injection, schedule: Q01DX001 (ip), vehicle: Klucel (hydroxypropylcellulose) (HPC)): 94 % of control

CC(=O)Oc1cc2c(c3ccccc13)OC(=O)CCCCCCCCCCC2=O
T/C (dose: 100.0 mg/kg/injection, schedule: Q04DX002 (ip), vehicle: Klucel (hydroxypropylcellulose) (HPC)): 93 % of control
T/C (dose: 200.0 mg/kg/injection, schedule: Q04DX002 (ip), vehicle: Klucel (hydroxypropylcellulose) (HPC)): 118 % of control
T/C (dose: 400.0 mg/kg/injection, schedule: Q04DX002 (ip), vehicle: Klucel (hydroxypropylcellulose) (HPC)): 107 % of control

C[C@]12C[C@@H](O)[C@H]3[C@@H](CCC4=C(O)C(=O)CC[C@@]43C)[C@@H]1CC[C@@H]2O
T/C (dose: 12.5 mg/kg/injection, schedule: Q01DX005 (ip), vehicle: Klucel (hydroxypropylcellulose) (HPC)): 97 % of control
T/C (dose: 25.0 mg/kg/injection, schedule: Q01DX005 (ip), vehicle: Klucel (hydroxypropylcellulose) (HPC)): 105 % of control
T/C [4]: 101 % of control
T/C [5]: 90 % of control
T/C [6]: 95 % of control

Cc1cc2[nH]c3ccccc3n2c(=O)c1N=Nc1ccccc1
T/C (dose: 87.5 mg/kg/injection, schedule: Q04DX002 (ip), vehicle: Klucel (hydroxypropylcellulose) (HPC)): 101 % of control
T/C (dose: 175.0 mg/kg/injection, schedule: Q04DX002 (ip), vehicle: Klucel (hydroxypropylcellulose) (HPC)): 92 % of control
T/C (dose: 350.0 mg/kg/injection, schedule: Q04DX002 (ip), vehicle: Klucel (hydroxypropylcellulose) (HPC)): 99 % of control

CSC(=S)N/N=C/c1ccc[nH]1
T/C [7]: 100 % of control
T/C [8]: 94 % of control

NC(Cc1ccccc1)C(=O)NC(Cc1ccccc1)C(=O)O (stereo not drawn) (H-Phe-Phe-OH; configuration not given here)
T/C [7]: 96 % of control
T/C [8]: 99 % of control
T/C [9]: 94 % of control

CN(C)c1ccc(C=C2C(=O)OC(C)(C)OC2=O)cc1
T/C [4]: 114 % of control
T/C [5]: 105 % of control
T/C [6]: 114 % of control

O=Cc1ccc2c(c1)OCCOCCOCCOCCO2
T/C (dose: 25.0 mg/kg/injection, schedule: Q01DX009 (ip), vehicle: saline): 100 % of control and 97 % of control
T/C [7]: 99 % of control and 111 % of control
T/C [8]: 105 % of control and 94 % of control
T/C [9]: 102 % of control and 92 % of control

Cc1nc2oc(=O)cc(C)c2c(=O)[nH]1
T/C [10]: 91 % of control
T/C [11]: 96 % of control

CCOC1N(c2ccccc2)CN(C2CCCCC2)CC1(C)C (centres undefined)
T/C (dose: 6.25 mg/kg/injection, schedule: Q01DX009 (ip), vehicle: saline with Tween-80): 100 % of control
T/C (dose: 12.5 mg/kg/injection, schedule: Q01DX009 (ip), vehicle: saline with Tween-80): 98 % of control
T/C [12]: 102 % of control

O=c1[nH]c(O)c(N=Nc2ccc([N+](=O)[O-])cc2[N+](=O)[O-])c(=O)[nH]1
T/C [12]: 113 % of control
T/C [13]: 102 % of control (2×) and 114 % of control
T/C [14]: 103 % of control and 112 % of control
T/C [15]: 102 % of control and 111 % of control

O=C1OCCOCCOC(=O)C(=O)OCCOCCOC1=O
T/C (dose: 100.0 mg/kg/injection, schedule: Q04DX003 (ip), vehicle: Klucel (hydroxypropylcellulose) (HPC)): 98 % of control
T/C (dose: 200.0 mg/kg/injection, schedule: Q04DX003 (ip), vehicle: Klucel (hydroxypropylcellulose) (HPC)): 100 % of control
T/C (dose: 400.0 mg/kg/injection, schedule: Q04DX003 (ip), vehicle: Klucel (hydroxypropylcellulose) (HPC)): 98 % of control

c1ccc2c3cc(cc2c1)OCCOCCOCCOCCOCCOc1ccc2ccccc2c1-3
T/C [13]: 101 % of control
T/C [14]: 101 % of control
T/C [15]: 103 % of control

O=C1CCSC(=S)N1c1ccc(F)c(F)c1
T/C (dose: 50.0 mg/kg/injection, schedule: Q01DX009 (ip), vehicle: suspension in saline): 107 % of control
T/C (dose: 100.0 mg/kg/injection, schedule: Q01DX009 (ip), vehicle: suspension in saline): 92 % of control
T/C (dose: 200.0 mg/kg/injection, schedule: Q01DX009 (ip), vehicle: suspension in saline): 92 % of control

CC(C)CC([NH-])C(=O)O.CC(C)CC([NH-])C(=O)O.CC(C)CC([NH-])C(=O)O.[Pr+3] (centres undefined)
T/C [4]: 107 % of control
T/C [5]: 102 % of control
T/C [6]: 98 % of control

O=C1OCC(C(=O)N2Cc3cc4ccccc4nc3C2)C1CO (centres undefined)
T/C [14]: 94 % of control
T/C [15]: 115 % of control
T/C (dose: 400.0 mg/kg/injection, schedule: Q01DX009 (ip), vehicle: saline with Tween-80): 105 % of control

CCOC(=O)c1ccccc1OP(=O)(N(C)C)N(C)C
T/C [13]: 99 % of control and 100 % of control and 108 % of control
T/C [14]: 99 % of control and 109 % of control and 97 % of control
T/C [15]: 99 % of control and 103 % of control and 109 % of control

Cc1[nH]nc2c1NC(=O)OC(C)C2 (centres undefined)
T/C [1]: 101 % of control
T/C [2]: 101 % of control
T/C [3]: 106 % of control

C/C(=N/NC(=O)CCl)c1ccccc1
T/C (dose: 75.0 mg/kg/injection, schedule: Q01DX009 (ip), vehicle: saline with Tween-80): 108 % of control

C[Si](Cl)(CCl)CCl
T/C [13]: 118 % of control
T/C [14]: 116 % of control
T/C [15]: 118 % of control

Nc1ccn(C2OC(COP(=O)(O)O)C(O)C2O)c(=O)n1 (centres undefined) (tested in a mixture with another compound)
T/C [10]: 108 % of control
T/C [11]: 99 % of control
T/C (dose: 240.0 mg/kg/injection, schedule: Q01DX005 (ip), vehicle: Klucel (hydroxypropylcellulose) (HPC)): 99 % of control

O=C(COc1ccc(Cl)cc1Cl)Oc1c(Cl)c(Cl)c(Cl)c(Cl)c1Cl
T/C [12]: 91 % of control
T/C [13]: 91 % of control
T/C [14]: 91 % of control

CC(=O)CC(=O)c1ccc(C)cc1.CC(=O)CC(=O)c1ccc(C)cc1.[Cu]
T/C [12]: 98 % of control
T/C [13]: 108 % of control and 113 % of control
